Experimental data from ChEMBL document CHEMBL3045009, “Synthesis and Biological Activity of the Functional Derivatives of 3- and 4-(Dimethyl-aminomethyl)-1,2-dithiolanes” (1992).

What was measured:
Type in all cases: functional
Chilo suppressalis [1] = experiment: Insecticidal activity against Chilo suppressalis (rice stem borer) assessed as mortality compound administered as topical application
Spodoptera litura = experiment: Insecticidal activity against Spodoptera litura assessed as mortality at 500 ppm; details: for mortality at 500 ppm: Spodoptera litura
Chilo suppressalis [2] = experiment: Insecticidal activity against Chilo suppressalis (rice stem borer) assessed as mortality at 50 ug/g administered as topical application
Culex pipiens molestus = experiment: Insecticidal activity against Culex pipiens molestus assessed as mortality at 5 ppm; details: for mortality at 5 ppm: Culex pipiens
Nilaparvata lugens = experiment: Insecticidal activity against Nilaparvata lugens (brown planthopper) assessed as mortality at 50 ppm; details: for mortality at 50 ppm: Nilaparvata lugens
Tetranychus urticae = experiment: Acaricidal activity against Tetranychus urticae (two-spotted spider mite) assessed as mortality at 500 ppm; details: for mortality at 500 ppm: Tetranychus urticae

| Structure (SMILES) | LD50 (Chilo suppressalis [1]) [mg/kg] | mortality at 500 ppm (Spodoptera litura) [%] | mortality (Chilo suppressalis [2]) [%] | mortality at 5 ppm (Culex pipiens molestus) [%] | mortality at 50 ppm (Nilaparvata lugens) [%] | mortality at 500 ppm (Tetranychus urticae) [%] | mortality (Spodoptera litura) [%] | mortality (Culex pipiens molestus) [%] | mortality (Nilaparvata lugens) [%] | mortality (Tetranychus urticae) [%] |
| --- | --- | --- | --- | --- | --- | --- | --- | --- | --- | --- |
| CNC(=S)SCCC(CN(C)C)SC(=S)NC (centres undefined) | 15.8 | 10 | 100 | 70 | 70 | 80 |  |  |  |  |
| CCN(CC)C(=O)[C@]1(C#N)SC[C@H](CN(C)C)CS1 | 5.6 |  | 100 |  |  |  | 100 | 100 | 100 | 90 |
| CN(C)C[C@@H]1CCSC(C(=O)c2ccccc2)(C(=O)c2ccccc2)S1.O.O=C(O)C(=O)O | 7.5 |  | 100 |  | 100 | 100 | 0 | 65 |  |  |
| CCN(CC)C(=O)[C@]1(C#N)SC[C@@H](CN(C)C)CS1.O=C(O)C(=O)O | 5.8 | 100 | 100 | 95 | 100 | 100 |  |  |  |  |
